The record followed here is patent US12714696B2, “Low dose fluralaner compositions for protection against parasitic invertebrate pest” (VIRBAC, priority 2019, dated 2026).

The subject of one data set is C. felis fleas. The data set is described as follows: Efficacy against fleas on dogs, oral 35 μg/kg study. The class given is in vivo. As for the experimental part: The second objective was to investigate the pharmacodynamics between the fluralaner plasmatic dose and the effectiveness against fleas. • IVP: Investigational Veterinary Product, is pure Fluralaner+DMSO (35 μg/kg on Days 0 to 3 (0.35 mL/kg)) • Control product is DMSO (0.35 mL/kg on Days 0 to 3)
On Days 0, 1, 2 and 3, all dogs assigned to group 2 received the Investigational Veterinary Product. On Days 0 to 3 all dogs in group 1 received the control product at a volume equal to the dogs in group 2. Dogs assigned to group 1 received the control product and served as Placebo controls. The quantity of Investigational Veterinary Product and control product administered was calculated according to the dog's individual body weight measured on Day −1.
Dogs were infested with approximately 100 (±8) viable, adult, C. felis fleas on Day −6 for randomisation purposes and on Days 1, 2 and 3 to assess efficacy. Fleas were removed and counted on Days −5, 2, 3 and 4 (24 hours±2 hours after infestation). Dogs were also infested with approximately 50 (±4) viable, adult, unfed R. sanguineus ticks on Day 4 to assess acaricidal efficacy. Ticks will be removed and counted on Day 5 (24 hours±2 hours after infestation).
The efficacy against ticks and fleas were calculated for the study groups at each assessment day according to the formulas given below.
Efficacy was calculated as follows: Efficacy (%)=100×(Mc−Mt)/Mc, where: • Mc=Mean number of live ticks (categories 1 to 2) or live fleas on dogs in the negative control group (group 1) at a specific time point. • Mt=Mean number of live ticks (categories 1 to 2) or live fleas on dogs in the IVP group (group 2) • at a specific time point.

A short description of data set [1]: Adverse event observation, oral study against fleas. The settings on record: oral 35 μg/kg Days 0-3, dogs. The format is in vivo, beagle dogs. The procedure: Dogs were observed hourly±15 minutes for four hours after administration on Day 0 and once daily two hours±15 minutes after Investigational Veterinary Product or control product administration on Days 1, 2 and 3. Observations were conducted for each individual dog.

With `Cc1cc(C2=NOC(c3cc(Cl)cc(Cl)c3)(C(F)(F)F)C2)ccc1C(=O)NCC(=O)NCC(F)(F)F` (stereo not drawn) [fluralaner, Fluralaner], the efficacy against fleas came to 100% with C. felis fleas (24 h after the first three doses of 35 μg/kg per day, dogs); 99.6% in the data set with C. felis fleas (24 h after the first two doses of 35 μg/kg per day, dogs); 99.8% in the data set with C. felis fleas (after the fourth and final dose of 35 μg/kg per day, dogs); 100% in the data set with C. felis fleas (period Day 2 to Day 4, 24 hours after infestation, oral 35 μg/kg Days 0-3, dogs). Besides, the “efficacy against fleas from 24 hours after administration” value with C. felis fleas (infestation at D1, first measurement at D2, whatever the dose) is reported as “high efficacy”. Besides, in data set [1], the “Adverse Events as a result of the product” value was “No Adverse Events”.
